Data published in PMC6277434, “Discovery of a potent HMG-CoA reductase degrader that eliminates statin-induced reductase accumulation and lowers cholesterol” (Nature Communications, 2018).

Target: T1, HMGCR (TM1-8)-GFP (Cricetulus griseus, UniProt P00347)
T1 sequence (P00347 1-346): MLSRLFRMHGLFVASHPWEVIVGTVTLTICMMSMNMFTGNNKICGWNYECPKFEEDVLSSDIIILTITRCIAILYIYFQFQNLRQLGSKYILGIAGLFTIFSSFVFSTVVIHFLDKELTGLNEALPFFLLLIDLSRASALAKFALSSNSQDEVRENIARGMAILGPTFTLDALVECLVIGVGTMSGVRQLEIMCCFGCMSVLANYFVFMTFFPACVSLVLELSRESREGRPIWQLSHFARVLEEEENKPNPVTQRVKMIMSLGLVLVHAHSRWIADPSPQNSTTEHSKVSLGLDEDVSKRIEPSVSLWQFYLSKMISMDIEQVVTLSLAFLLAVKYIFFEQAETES
Assay: not given
Conditions: not given

SMILES | DC50 [µM]
C[C@H](CCCCC(C)(C)O)C1CCC2C3C(CC[C@@]21C)[C@@]1(C)CC[C@H](O)C(C)(C)C1=C[C@@H]3O (stereo partly shown) [Compound 100] | 0.51
C[C@H](CCCCCO)C1CCC2C3C(CC[C@@]21C)[C@@]1(C)CC[C@H](O)C(C)(C)C1=C[C@@H]3O (stereo partly shown) [Compound 96] | 2.96
C[C@H](CCCCO)C1CCC2C3C(CC[C@@]21C)[C@@]1(C)CC[C@H](O)C(C)(C)C1=C[C@@H]3O (stereo partly shown) [Compound 74] | 4.52
C=CCC(O)CC[C@@H](C)C1CCC2C3C(CC[C@@]21C)[C@@]1(C)CC[C@H](O)C(C)(C)C1=C[C@@H]3O (stereo partly shown) [Compound 65] | 2.33
C[C@H](CCCO)C1CCC2C3C(CC[C@@]21C)[C@@]1(C)CC[C@H](O)C(C)(C)C1=C[C@@H]3O (stereo partly shown) [Compound 51] | 9.08
CCC(O)CCCCC[C@@H](C)C1CCC2C3C(CC[C@@]21C)[C@@]1(C)CC[C@H](O)C(C)(C)C1=C[C@@H]3O (stereo partly shown) [Compound 125] | 1.83
CC(O)CCC[C@@H](C)C1CCC2C3C(CC[C@@]21C)[C@@]1(C)CC[C@H](O)C(C)(C)C1=C[C@@H]3O (stereo partly shown) [Compound 86] | 2.17
C[C@H](CCCCCCO)C1CCC2C3C(CC[C@@]21C)[C@@]1(C)CC[C@H](O)C(C)(C)C1=C[C@@H]3O (stereo partly shown) [Compound 113] | 1.72
C[C@H](CCCC(=O)O)C1CCC2C3C(CC[C@@]21C)[C@@]1(C)CC[C@H](O)C(C)(C)C1=C[C@@H]3O (stereo partly shown) [Compound 73] | 60.6
CC(O)CC[C@@H](C)C1CCC2C3C(CC[C@@]21C)[C@@]1(C)CC[C@H](O)C(C)(C)C1=C[C@@H]3O (stereo partly shown) [Compound 63] | 2.96
C=CCC(O)(CC=C)CC[C@@H](C)C1CCC2C3C(CC[C@@]21C)[C@@]1(C)CC[C@H](O)C(C)(C)C1=C[C@@H]3O (stereo partly shown) [Compound 58] | 4.5
C=CCC(O)CCCCC[C@@H](C)C1CCC2C3C(CC[C@@]21C)[C@@]1(C)CC[C@H](O)C(C)(C)C1=C[C@@H]3O (stereo partly shown) [Compound 126] | 2.45
CCC(O)CCCC[C@@H](C)C1CCC2C3C(CC[C@@]21C)[C@@]1(C)CC[C@H](O)C(C)(C)C1=C[C@@H]3O (stereo partly shown) [Compound 108] | 1.03
COCCCCC[C@@H](C)C1CCC2C3C(CC[C@@]21C)[C@@]1(C)CC[C@H](O)C(C)(C)C1=C[C@@H]3O (stereo partly shown) [Compound 95] | 2.34

Target: T1, HMGCR (TM1-8)-GFP
Assay: HMGCR (TM1-8)-GFP fluorescent assay (high-content imaging) in CHG cells
Conditions: 16 h, read-out: HMGCR (TM1-8)-GFP fluorescent intensity, mean

SMILES | remaining activity at 0.1 µM [%] | remaining activity at 0.3 µM [%] | remaining activity at 1 µM [%] | remaining activity at 3 µM [%] | remaining activity at 10 µM [%] | remaining activity at 20 µM [%] | remaining activity at 30 µM [%]
CC(C)CCC[C@@H](C)[C@H]1CCC2C3CC=C4C5(CCCCC5)[C@@H](O)CC[C@]4(C)C3CC[C@@]21C (stereo partly shown) [Compound 10] | 100 | 106 | 92.7 | 102 | 103 | 98.6 | 101
CC(C)CCC[C@@H](C)[C@H]1CCC2C3C(CC[C@@]21C)[C@@]1(C)CC[C@H](O)C(C)(C)C1=C[C@H]3N (stereo partly shown) [Compound 19] | 90.2 | 107 | 99.6 | 93.4 | 99.4 | 106 | 99.6
C=CCC1(CC=C)C2=CCC3C(CC[C@@]4(C)C3CC[C@@H]4[C@H](C)CCCC(C)C)[C@@]2(C)CC[C@@H]1O (stereo partly shown) [Compound 9] | 95.3 | 92.7 | 80.9 | 90.8 | 93.7 | 88.7 | 90.8
CC(C)CCC[C@@H](C)[C@H]1CCC2C3C(=O)C=C4C(C)(C)[C@@H](O)CC[C@]4(C)C3CC[C@@]21C (stereo partly shown) [Compound 33] | 93 | 97.3 | 94.4 | 96.3 | 95.2 | 85 | –
CC(C)CCC[C@@H](C)[C@H]1CCC2C3C(CC[C@@]21C)[C@@]1(C)CC[C@H](O)C(C)(C)C1=C[C@H]3N=[N+]=[N-] (stereo partly shown) [Compound 18] | 99.5 | 103 | 103 | 99.4 | 96.7 | 98.8 | 93
CC(=O)N[C@@H]1C=C2C(C)(C)[C@@H](O)CC[C@]2(C)C2CC[C@@]3(C)C(CC[C@@H]3[C@H](C)CCCC(C)C)C21 (stereo partly shown) [Compound 22] | 97.3 | 91.4 | 89.7 | 101 | 97.5 | 97.9 | 93.5
CCC1(CC)C2=CCC3C(CC[C@@]4(C)C3CC[C@@H]4[C@H](C)CCCC(C)C)[C@@]2(C)CC[C@@H]1O (stereo partly shown) [Compound 8] | 90.5 | 79.5 | 82.7 | 83.2 | 89.3 | 91.4 | 93.9
COCCC1(CCOC)C2=CCC3C(CC[C@@]4(C)C3CC[C@@H]4[C@H](C)CCCC(C)C)[C@@]2(C)CC[C@@H]1O (stereo partly shown) [Compound 14] | 90.2 | 107 | 99.6 | 93.4 | 99.4 | 106 | 98.6
CCC1(CCOC)C2=CCC3C(CCC4(C)C(C(C)CCCC(C)C)CCC34)C2(C)CCC1O (stereo not shown) [Compound 11] | 90.8 | 97.1 | 100 | 91.7 | 93.3 | 97.4 | 95.4

Same assay, conditions: CHG cells, 16 h

SMILES | effect on HMGCR (TM1-8)-GFP intensity
CC(C)CCC[C@@H](C)[C@H]1CCC2C3CC=C4C5(CCCCC5)[C@@H](O)CC[C@]4(C)C3CC[C@@]21C (stereo partly shown) [Compound 10] | did not decrease the HMGCR (TM1-8)-GFP intensity
C=CCC1(CC=C)C2=CCC3C(CC[C@@]4(C)C3CC[C@@H]4[C@H](C)CCCC(C)C)[C@@]2(C)CC[C@@H]1O (stereo partly shown) [Compound 9] | did not decrease the HMGCR (TM1-8)-GFP intensity
CCC1(CC)C2=CCC3C(CC[C@@]4(C)C3CC[C@@H]4[C@H](C)CCCC(C)C)[C@@]2(C)CC[C@@H]1O (stereo partly shown) [Compound 8] | did not decrease the HMGCR (TM1-8)-GFP intensity
COCCC1(CCOC)C2=CCC3C(CC[C@@]4(C)C3CC[C@@H]4[C@H](C)CCCC(C)C)[C@@]2(C)CC[C@@H]1O (stereo partly shown) [Compound 14] | did not decrease the HMGCR (TM1-8)-GFP intensity
CCC1(CCOC)C2=CCC3C(CCC4(C)C(C(C)CCCC(C)C)CCC34)C2(C)CCC1O (stereo not shown) [Compound 11] | did not decrease the HMGCR (TM1-8)-GFP intensity

Same assay, conditions: read-out: Mean (HMGCR (TM1-8)-GFP signal relative to 0 μM = 100)

SMILES | remaining activity at 0.156 µM [%] | remaining activity at 0.313 µM [%] | remaining activity at 0.625 µM [%] | remaining activity at 1.25 µM [%] | remaining activity at 2.5 µM [%] | remaining activity at 5 µM [%] | remaining activity at 10 µM [%]
C[C@H](CCCCC(C)(C)O)C1CCC2C3C(CC[C@@]21C)[C@@]1(C)CC[C@H](O)C(C)(C)C1=C[C@@H]3O (stereo partly shown) [Compound 100] | 78.6 | 69.4 | 51.6 | 33.5 | 21.6 | 14.8 | 12.4
C[C@H](CCCCO)C1CCC2C3C(CC[C@@]21C)[C@@]1(C)CC[C@H](O)C(C)(C)C1=C[C@@H]3O (stereo partly shown) [Compound 74] | 96.8 | 94.2 | 92.9 | 83.2 | 62.6 | 44.4 | 33
C=CCC(O)CC[C@@H](C)C1CCC2C3C(CC[C@@]21C)[C@@]1(C)CC[C@H](O)C(C)(C)C1=C[C@@H]3O (stereo partly shown) [Compound 65] | 108 | 103 | 93.6 | 78.4 | 40.4 | 22.1 | 14
C[C@H](CCCO)C1CCC2C3C(CC[C@@]21C)[C@@]1(C)CC[C@H](O)C(C)(C)C1=C[C@@H]3O (stereo partly shown) [Compound 51] | 98.3 | 102 | 101 | 92.8 | 82.2 | 67.8 | 47.7
CCC(O)CCCCC[C@@H](C)C1CCC2C3C(CC[C@@]21C)[C@@]1(C)CC[C@H](O)C(C)(C)C1=C[C@@H]3O (stereo partly shown) [Compound 125] | 83.6 | 77.5 | 65.3 | 50.2 | 41.6 | 34.7 | 33.6
CC(O)CCC[C@@H](C)C1CCC2C3C(CC[C@@]21C)[C@@]1(C)CC[C@H](O)C(C)(C)C1=C[C@@H]3O (stereo partly shown) [Compound 86] | 96.6 | 88.8 | 78.7 | 64.4 | 44.4 | 28.4 | 19.7
C[C@H](CCCCCCO)C1CCC2C3C(CC[C@@]21C)[C@@]1(C)CC[C@H](O)C(C)(C)C1=C[C@@H]3O (stereo partly shown) [Compound 113] | 94.7 | 91.3 | 72.7 | 57.4 | 35.8 | 22 | 24.1
C[C@H](CCCC(=O)O)C1CCC2C3C(CC[C@@]21C)[C@@]1(C)CC[C@H](O)C(C)(C)C1=C[C@@H]3O (stereo partly shown) [Compound 73] | 97 | 97.9 | 97.7 | 98.1 | 92.6 | 87.2 | 81.4
CC(O)CC[C@@H](C)C1CCC2C3C(CC[C@@]21C)[C@@]1(C)CC[C@H](O)C(C)(C)C1=C[C@@H]3O (stereo partly shown) [Compound 63] | 100 | 97.9 | 86.9 | 73.2 | 50.1 | 37.4 | 21
C=CCC(O)(CC=C)CC[C@@H](C)C1CCC2C3C(CC[C@@]21C)[C@@]1(C)CC[C@H](O)C(C)(C)C1=C[C@@H]3O (stereo partly shown) [Compound 58] | 106 | 110 | 104 | 92.1 | 68.2 | 43.8 | 25.3
C=CCC(O)CCCCC[C@@H](C)C1CCC2C3C(CC[C@@]21C)[C@@]1(C)CC[C@H](O)C(C)(C)C1=C[C@@H]3O (stereo partly shown) [Compound 126] | 76.4 | 72.3 | 58.7 | 50.3 | 44.6 | 45.5 | 44.4
CCC(O)CCCC[C@@H](C)C1CCC2C3C(CC[C@@]21C)[C@@]1(C)CC[C@H](O)C(C)(C)C1=C[C@@H]3O (stereo partly shown) [Compound 108] | 90.7 | 77.2 | 56.5 | 39.2 | 29.4 | 25.5 | 18.6
C[C@H](CCC(=O)O)C1CCC2C3C(CC[C@@]21C)[C@@]1(C)CC[C@H](O)C(C)(C)C1=C[C@@H]3O (stereo partly shown) [Compound 50] | 98.8 | 106 | 105 | 105 | 103 | 100 | 98.3
